Activity calls are given as the source filed them. The calls are words filed in the database; no cut-off is given here.
Columns and labels:
Geotrichum candidum = assay: Antifungal activity against Geotrichum candidum assessed as lethal concentration; format: functional
Stenotrophomonas [1] = assay: Antimicrobial activity against Stenotrophomonas LZ-1 assessed as lethal concentration; format: functional
Pseudomonas putida = assay: Antimicrobial activity against Pseudomonas putida assessed as lethal concentration; format: functional
Saccharomyces cerevisiae = assay: Antimicrobial activity against Saccharomyces cerevisiae assessed as lethal concentration; format: functional
Stenotrophomonas [2] = assay: Antimicrobial activity against Stenotrophomonas YC-1 assessed as lethal concentration; format: functional
Shewanella oneidensis = assay: Antimicrobial activity against Shewanella oneidensis assessed as lethal concentration; format: functional
Pseudomonas aeruginosa = assay: Antimicrobial activity against Pseudomonas aeruginosa assessed as lethal concentration; format: functional
Micrococcus luteus = assay: Antimicrobial activity against Micrococcus luteus assessed as lethal concentration; format: functional
[3] = tested on: Agrobacterium tumefaciens; assay: Antimicrobial activity against Agrobacterium tumefaciens assessed as lethal concentration; format: functional
Bacillus sp. [4] = assay: Antimicrobial activity against Bacillus sp. DM-1 assessed as lethal concentration; format: functional
Salmonella typhimurium = assay: Antimicrobial activity against Salmonella Typhimurium assessed as lethal concentration; format: functional
Priestia megaterium = assay: Antimicrobial activity against Bacillus megaterium assessed as lethal concentration; format: functional
Klebsiella sp. = assay: Antimicrobial activity against Klebsiella sp. F51-1-2 assessed as lethal concentration; format: functional
Serratia marcescens = assay: Antimicrobial activity against Serratia marcescens assessed as lethal concentration; format: functional
[5] = Cytotoxicity against mouse erythrocyte assessed as hemolysis at 50 uM; format: cell-based; conditions: erythrocytes, read-out: Activity
Bacillus sp. [6] = assay: Induction of membrane disruption in Bacillus sp. DM-1 at 10 uM after 30 mins using propidium iodide; format: functional, organism-based
[7] = Salmonella enterica subsp. enterica serovar Typhimurium

Row | Substance | Activity (Geotrichum candidum) | Activity (Stenotrophomonas [1]) | Activity (Pseudomonas putida) | Activity (Saccharomyces cerevisiae) | Activity (Stenotrophomonas [2]) | Activity (Shewanella oneidensis) | Activity (Pseudomonas aeruginosa) | Activity (Micrococcus luteus) | Activity [3] | Activity (Bacillus sp. [4]) | Activity (Salmonella typhimurium; [7]) | Activity (Priestia megaterium) | Activity (Klebsiella sp.) | Activity (Serratia marcescens) | hemolysis at 50 µM [5] | Activity (Salmonella typhimurium) | Activity (Bacillus sp. [6])
1 | H-IFGAIAGFIKNGW-NH2 | inactive | inactive | inactive | 83.26 µM | inactive | inactive | inactive | 14.1 µM | inactive | 5.36 µM | inactive | inactive | >100 µM | >100 µM | – | – | –
2 | H-IFGAIAGFIKNGW-OH | inactive | inactive | inactive | inactive | inactive | inactive | inactive | inactive | inactive | 49.93 µM | inactive | inactive | inactive | inactive | – | – | –
3 | H-IFGAIAGFIKNIW-NH2 | 5.36 µM | >100 µM | 9.78 µM | 28.29 µM | 76.98 µM | 76.98 µM | 31.55 µM | 5.95 µM | 20.79 µM | 2.16 µM | – | 14.1 µM | 23.81 µM | 19.25 µM | 24.1% | >100 µM | –
4 | H-IFGAIAGFIKNIW-OH | inactive | inactive | inactive | inactive | inactive | inactive | inactive | inactive | inactive | 49.93 µM | inactive | inactive | inactive | inactive | – | – | –
5 | H-IFGAIAGLLKNIF-NH2 [Meucin-13] | >50 µM | – | – | 18.3 µM | 6.2 µM | 6.2 µM | inactive | 2.9 µM | 11.8 µM | 2 µM | – | 0.25 µM | – | inactive | 64.7% | >50 µM | Active

Source: ChEMBL document CHEMBL1671776, “Convergent evolution-guided design of antimicrobial peptides derived from influenza A virus hemagglutinin” (J Med Chem, 2011)
